Read-outs that look alike come from different tables or passages of the source. Residues, ends and D or L forms follow the SMILES beside them.
System: Myc-Max transcriptional activity
Test: Cignal c-Myc luciferase reporter assay in LNCaP cells
Format: cell-based
Settings: for inhibition at 25 µM / IC50 / inhibition at 5 µM / inhibition at 10 µM / inhibition at 12.5 µM: Homo sapiens, LNCaP; for IC50: assay not named, read-out: IC50
Procedure: Cell transfection was performed using TransIT-2020™ transfection reagents according to the manufacturer's instructions (Mirus™). LNCaP cells were plated at 10000 cells per well and treated for 1 day with the indicated concentration of compound. Myc reporter activity was measured using the Cignal Myc Reporter Assay Kit™ from Qiagen™ (#336841) according to the manufacturer's instructions. For the UBE2C reporter assay, 22rv1 cells were plated at 10000 cells per well in 96-well plates in RPMI media supplemented with 5% charcoal-stripped serum (CSS) and treated for 1 day with 1 μM, 10 μM and 25 μM of compound.
Compounds were subjected to experimental evaluation using the commercially available transcriptional assay Cignal c-Myc luciferase reporter assay in LNCaP cells. […] A transiently transfected Myc-driven luciferase reporter allowed the monitoring of Myc-regulated signal in LNCaP upon treatment with the in silico identified compounds.

[1] = 25 μM, TABLE 3, read-out: % Inhibition 25 μM
[2] = TABLE 2, values match Myc-Max transcriptional activity
[3] = 25 μM, TABLE 5, read-out: % Inhibition 25 μM
[4] = 24 h, 25 μM, LNCaP cells, TABLE 1, read-out: Myc-Max transcriptional activity % inhibition (25 μM)

SMILES | inhibition at 25 µM [1] | inhibition at 25 µM [3] | also measured
CC[C@@H]1Oc2cc(S(=O)(=O)N(C)CC(=O)N(C)Cc3ccccc3)c(C)cc2NC1=O [VPC-70381] | 74% |  | IC50 [2]: 20 µM
CCCc1cc(=O)oc2cc(C)cc(OCC(=O)N[C@H](C(=O)O)C(C)C)c12 [VPC-70405] |  | 54% | 
O=C(NCc1ccccc1Cl)Nc1ccc(Cl)c(Cl)c1 [VPC-70466] | 86% |  | inhibition at 5 µM (5 μM, TABLE 3): 1%; inhibition at 10 µM (TABLE 3): 48%
COc1ccccc1CNC(=O)c1ccc(N=S(=O)(O)c2ccc([C@@H](C)O)cc2)cc1 [VPC-70341] |  | 50% | 
O=C(CNC(=O)NCc1ccc(F)cc1)NCc1ccc(OC(F)(F)F)cc1 [VPC-70222] |  | 68% | 
FC(F)(F)c1cc(Br)cc(NC(=S)NCc2cccs2)c1 [VPC-70495] | 100% |  | inhibition at 5 µM (5 μM, TABLE 3): 107%; inhibition at 10 µM (TABLE 3): 80%; IC50 [2]: 5 µM
S=C(NCc1cccs1)Nc1ccc(Cl)c(Cl)c1 [VPC-70458] | 86% |  | inhibition at 5 µM (5 μM, TABLE 3): 42%; inhibition at 10 µM (TABLE 3): 104%
CS(=O)(=O)Nc1ccccc1C(=O)OCc1cc(=O)oc2cc(O)ccc12 [VPC-70027] |  | 53% | inhibition at 25 µM [4]: 53%
FC(F)(F)c1cc(NC(=S)NC[C@H]2CCCO2)cc(C(F)(F)F)c1 [VPC-70437] | 87% |  | inhibition at 5 µM (5 μM, TABLE 3): 24%; inhibition at 10 µM (TABLE 3): 105%
CS(=O)(=O)Nc1cccc(C2=NN(C(=O)CCC(=O)O)[C@H](c3ccccc3O)C2)c1 [VPC-70391] |  | 54% | 
O=S(O)(=Nc1cccc2[nH]ccc12)C1CCc2n[nH]nc2C1 (stereo not drawn) [VPC-70158] |  | 41% | 
C[C@H](CCc1ccccc1)NC(=O)[C@H]1CCCN(C(=O)CCc2c[nH]c3ccccc23)C1 [VPC-70314] | 93% |  | IC50 [2]: 15 µM
Cc1ccc(O)c(-c2cc(C(=O)Nc3ccc(S(=O)(=O)N4CCCCC4)cc3)n[nH]2)c1 [VPC-70389] |  | 58% | 
C[C@@H](NC1=NS(=O)(=O)c2ccccc21)C(=O)NCCCSc1ccccc1 [VPC-70258] |  | 34% | 
O=C(NCCNc1ncccn1)NC[C@@H](O)c1cccc(Cl)c1 [VPC-70263] |  | 32% | 
Fc1ccc(NC(=S)NCc2ccccc2)cc1C(F)(F)F [VPC-70532] |  |  | inhibition at 12.5 µM (TABLE 3): 101%
S=C(NCc1ccccc1)Nc1cc(Cl)cc(Cl)c1 [VPC-70498] | 100% |  | inhibition at 5 µM (5 μM, TABLE 3): 36%; inhibition at 10 µM (TABLE 3): 106%
S=C(NCc1cccnc1)Nc1cc(Cl)cc(Cl)c1 [VPC-70496] | 96% |  | inhibition at 5 µM (5 μM, TABLE 3): 22%; inhibition at 10 µM (TABLE 3): 95%
C[C@@H](NC(=O)OCc1ccccc1)C(=O)NCC(=O)Nc1ccc(F)c(F)c1 [VPC-70211] |  | 47% | 
O=C(Nc1cccc(C(F)(F)F)c1)Nc1cccc(C(F)(F)F)c1 [VPC-70511] | 102% |  | inhibition at 5 µM (5 μM, TABLE 3): 108%; inhibition at 10 µM (TABLE 3): 112%; IC50 [2]: 2 µM
CC(C)(C)CNC(=S)Nc1cccc(C(F)(F)F)c1 [VPC-70529] | 94% |  | inhibition at 5 µM (5 μM, TABLE 3): 14%; inhibition at 10 µM (TABLE 3): 52%
CCn1c(CC(=O)Nc2cccc(C)c2)nnc1SCC(=O)Nc1cc(F)ccc1F [VPC-70392] |  | 58% | 

SMILES | inhibition at 25 µM [1] | inhibition at 25 µM [3] | also measured
O=C(CSc1nc2ccccc2c(=O)n1CCCO)NC(=O)Nc1ccccc1F [VPC-70355] |  | 51% | 
Cc1c(NC(=O)[C@H](C)OC(=O)c2cccc(O)c2)c(=O)n(-c2ccccc2)n1C [VPC-70216] |  | 40% | 
O=C(CCN1C(=O)S/C(=C\c2ccccc2)C1=O)NCCc1c[nH]c2ccccc12 [VPC-70388] | 77% |  | IC50 [2]: 20 µM
FC(F)Oc1ccc(CNC(=S)Nc2cccc(C(F)(F)F)c2)cc1 [VPC-70523] | 102% |  | inhibition at 5 µM (5 μM, TABLE 3): -4%; inhibition at 10 µM (TABLE 3): 104%
CC[C@@H](NC(=S)Nc1cccc(C)c1)c1ccccc1 [VPC-70473] | 77% |  | 
C[C@@H](CCc1ccc(O)cc1)NC(=O)N[C@H]1CCOC2(CCCC2)C1 [VPC-70261] |  | 35% | 
O=C1COc2ccc(S(=O)(=O)N3CCC(C(=O)NC4CCCCCC4)CC3)cc2N1 [VPC-70376] |  | 55% | 
O=C(CCN1C(=O)S/C(=C/C=C/c2ccccc2)C1=O)NCCc1c[nH]c2ccccc12 [VPC-70387] | 82% |  | 
O=C(CN1C(=O)NC2(CCCC2)C1=O)Nc1cccc(C(F)(F)F)c1 [VPC-70066] |  | 65% | inhibition at 25 µM [4]: 65%
CC(C)(O)c1ccc(CNC(=S)NCc2cccc(C(F)(F)F)c2)cc1 [VPC-70561] |  |  | inhibition at 12.5 µM (TABLE 3): 95%
Cc1ccccc1C(=O)N[C@H](CC(C)C)C(=O)N1CCN(S(=O)(=O)c2nc[nH]n2)CC1 [VPC-70356] |  | 53% | 
Cc1ccc(Nc2ccccc2N=S(=O)(O)c2ccc(C(=O)O)cc2)cc1 [VPC-70163] |  | 39% | 
Fc1ccccc1CNC(=S)Nc1cccc(C(F)(F)F)c1 [VPC-70465] | 92% |  | % Inhibition 10 μM (TABLE 3): 95%; inhibition at 5 µM (5 μM, TABLE 3): 51%; IC50 [2]: 10 µM
O=C(NCCCc1ccccc1)NC[C@](O)(c1ccccc1)C(F)(F)F [VPC-70205] |  | 50% | 
C[C@@H]1CCNC(=O)[C@H]1NC(=O)NCCCc1cccc(Cl)c1 [VPC-70249] |  | 65% | 
CS(=O)(=O)NCCc1ccc(C(=O)NC[C@H](c2cccs2)c2c[nH]c3ccccc23)cc1 [VPC-70361] |  | 61% | 
COc1ccccc1-c1noc(CNC(=O)N[C@H](Cc2c[nH]c3ccccc23)C(=O)O)n1 [VPC-70345] |  | 51% | 
C[C@@H](NC(=O)OCc1ccccc1)C(=O)N[C@H](CCC(N)=O)C(=O)OCc1ccc([N+](=O)[O-])cc1 [VPC-70386] (HELM PEPTIDE1{[O=C(OCc1ccccc1)[*:2]].[dA].[dQ].[O=[N+]([O-])c1ccc(CO[*:1])cc1]}$$$$V2.0) |  | 55% | 
NC(=O)CC[C@H](NC(=O)C1(c2ccccc2)CCN(C(=O)[C@@H]2CCCN2)CC1)C(=O)O [VPC-70318] |  | 54% | 
Cc1cc(NC(=S)NCC(C)C)cc(C(F)(F)F)c1 [VPC-70478] | 91% |  | inhibition at 5 µM (5 μM, TABLE 3): 26%; inhibition at 10 µM (TABLE 3): 65%
C[C@H]1CC[C@H](C(N)=O)CN1C(=O)c1cccc(S(=O)(O)=Nc2cccc(Cl)c2)c1 [VPC-70366] |  | 60% | 
O=C(CNC(=O)C1CCCC1)NC[C@@H](O)COc1cccc2ccccc12 [VPC-70252] |  | 45% | 

SMILES | inhibition at 25 µM [1] | inhibition at 25 µM [3] | also measured
S=C(NCc1ccc(Cl)nc1)Nc1cccc(Cl)c1 [VPC-70524] | 102% |  | inhibition at 5 µM (5 μM, TABLE 3): 22%; inhibition at 10 µM (TABLE 3): 4%
O=C(NCCOc1cccc(Cl)c1)NCC[C@H](O)C(F)(F)F [VPC-70266] |  | 38% | 
CCCc1cc(=O)oc2cc(C)cc(OCC(=O)N[C@@H](C)C(=O)O)c12 [VPC-70404] |  | 53% | 
COc1cccc(NC(=O)c2ccccc2N(C)C(=O)CCC(=O)NCc2ccccc2)c1 [VPC-70340] |  | 49% | 
O=C(CSCCO)Nc1ccc(C23CC4CC(CC(C4)C2)C3)cc1 [VPC-70146] |  | 52% | 
O=C(CCNC(=O)c1cccc(C(F)(F)F)c1)NCc1ccccc1 [VPC-70554] |  |  | inhibition at 12.5 µM (TABLE 3): 71%
FC(F)(F)c1cccc(NC(=S)NCc2ccccc2C(F)(F)F)c1 [VPC-70535] |  |  | inhibition at 12.5 µM (TABLE 3): 95%
C[C@@H]1CCCC[C@@H]1NC(=O)NCCCn1ccc2ccccc21 [VPC-70255] |  | 40% | 
C=C(C)COc1cccc(NC(=S)NCc2cccc(C(F)(F)F)c2)c1 [VPC-70489] | 99% |  | inhibition at 5 µM (5 μM, TABLE 3): 38%; inhibition at 10 µM (TABLE 3): 86%
CS(=O)(O)=Nc1cccc(NC(=S)NCc2cccc(C(F)(F)F)c2)c1 [VPC-70487] | 79% |  | inhibition at 5 µM (5 μM, TABLE 3): 34%; inhibition at 10 µM (TABLE 3): 42%
FC(F)(F)c1cccc(NC(=S)Nc2ccc(Cl)c(C(F)(F)F)c2)c1 [VPC-70514] | 102% |  | inhibition at 5 µM (5 μM, TABLE 3): 109%; inhibition at 10 µM (TABLE 3): 110%
Cc1c(Cl)cc(NC(=S)NCc2ccccc2)cc1Cl [VPC-70530] |  |  | inhibition at 12.5 µM (TABLE 3): 94%
Cc1ccsc1CCNC(=O)CCS(=O)(=O)c1cc2c(cc1Cl)NC(=O)CO2 [VPC-70377] |  | 52% | 
Cc1cccc(CSc2nc(O)c3c(n2)NC(=O)C[C@H]3C(=O)Nc2cccc(F)c2)c1 [VPC-70384] |  | 53% | 
Fc1ccccc1CNC(=S)Nc1cccc(C(F)(F)F)c1 [VPC-70483] |  |  | % Inhibition 5 μM (5 μM, TABLE 3): 31%; % Inhibition 10 μM (TABLE 3): 38%; % Inhibition 25 μM (25 μM, TABLE 3): 79%
CCOCCOc1nc(-c2cccc(F)c2)n(-c2ccc(NC[C@H](O)COC)cc2)n1 [VPC-70379] |  | 52% | 
NC(=O)c1ccc(NC(=O)COC(=O)[C@H](Cc2ccccc2)NC(=O)c2ccccc2)cc1 [VPC-70339] |  | 50% | 
C[C@@H](NC(=O)NC[C@@H](O)COc1cccc(F)c1)c1cccs1 [VPC-70247] |  | 35% | 
N#Cc1ccc(NNC(=O)c2ccc(C(F)(F)F)cc2)c(C(F)(F)F)c1 [VPC-70551] |  |  | inhibition at 10 µM (TABLE 6): 91%; IC50 (TABLE 6 footnote): 4 µM
C[C@H](OC(=O)[C@@H]1CCCN1C(=O)C12CC3CC(CC(C3)C1)C2)C(=O)c1c[nH]c2ccccc12 [VPC-70360] |  | 64% | 

— patent US12017975B2, “Myc-Max inhibitor compound therapeutics for cancer treatment, methods and uses associated therewith” (THE UNIVERSITY OF BRITISH COLUMBIA, priority 2018, dated 2024)
